Reference: paper PMC9019100, “Development of NanoLuc-targeting protein degraders and a universal reporter system to benchmark tag-targeted degradation platforms” (Nature Communications, 2022)

What was measured:
murine MLKL-FKBP^F36V = molecular target: T1, murine MLKL-FKBP^F36V (Homo sapiens, UniProt P62942, F37V); type: cell-based; details: 31.2-500 nM, 5 h
T1 construct: expressed in transfected cells; host or cells: Mlkl-/- mouse dermal fibroblasts, doxycycline-inducible
Procedure: All timepoint experiments were performed as reverse timepoints in order to harvest all cells at the same time. At the indicated time points cells were lysed in NuPAGE LDS lysis buffer (Invitrogen) diluted to 1× in DISC lysis buffer (20 mM Tris-HCl pH7.5, 150 mM NaCl, 2 mM EDTA pH 8.0, 1% Triton X-100, 10% glycerol, H20)) supplemented with β-Mercaptoethanol (2%), protease and phosphatase inhibitors. Lysates were run through polypropylene columns (Pierce) to shred DNA. […] Membranes were blocked in 5% skim milk (Devondale) in TBS-T (TBS, 0.1% Tween-20) for 1 h prior to immunoblotting with primary antibodies overnight at 4 °C. Unless stated otherwise, all primary antibodies were diluted in TBS-T (TBS, 0.1% Tween-20) containing 5% BSA (Sigma A8022) and 0.04% sodium azide: HaloTag (1:1000, Promega; G9211), NanoLuc (1:500, Promega; N7000), β-actin (1:20,000, Sigma; A-1798), MLKL (1:1000, produced in-house; 3H1 clone)[39], FKBP (1:1000, R&D systems; 422513), caspase-8 (1:1000, Proteintech; 13423-1-AP), Histone H3 (1:1000, Abcam; ab10799), Cadherin (1:1000, Cell Signalling Technologies; 4068 T). Membranes were washed 3 × 5–10 min in TBS-T (TBS, 0.1% Tween-20) prior to the addition of the appropriate secondary antibodies conjugated with horseradish peroxidase (Jaxon laboratories). […]

Fibrillarin-NanoLuc = molecular target: T2, Fibrillarin-NanoLuc (Oplophorus gracilirostris, UniProt Q9GV45, A31E/A60N/A81I/F95D/I117V/K70R/L54V/L99Q/M102K/N193R/P142E/Q151K/Q38R/Q45L/V71I/Y165I); assay: cell-based; details: HEK-293T; 500 nM, 10 h; read-out: Dmax (densitometry)
T2 construct: endogenous in cells; host or cells: 293T, CRISPR/PITCh knock-in at the FBL locus

NanoLuc-SLC38A2 = molecular target: T3, NanoLuc-SLC38A2 (Oplophorus gracilirostris, UniProt Q9GV45, A31E/A60N/A81I/F95D/I117V/K70R/L54V/L99Q/M102K/N193R/P142E/Q151K/Q38R/Q45L/V71I/Y165I); assay: Western blot of 293T cells expressing NanoLuc-SLC38A2; type: cell-based; details: 125-500 nM, 5 h
T3 construct: expressed in transfected cells; host or cells: 293T, doxycycline-induced
Procedure: Cells were seeded in 24-well plates ±doxycycline (20 ng/mL for HEK293T, 40 ng/mL for HT29) and incubated overnight (16–24 h) prior to degrader treatments, as stated in the Fig. legends. All timepoint experiments were performed as reverse timepoints in order to harvest all cells at the same time. At the indicated time points cells were lysed in NuPAGE LDS lysis buffer (Invitrogen) diluted to 1× in DISC lysis buffer (20 mM Tris-HCl pH7.5, 150 mM NaCl, 2 mM EDTA pH 8.0, 1% Triton X-100, 10% glycerol, H20)) supplemented with β-Mercaptoethanol (2%), protease and phosphatase inhibitors. Lysates were run through polypropylene columns (Pierce) to shred DNA. […] Membranes were blocked in 5% skim milk (Devondale) in TBS-T (TBS, 0.1% Tween-20) for 1 h prior to immunoblotting with primary antibodies overnight at 4 °C. Unless stated otherwise, all primary antibodies were diluted in TBS-T (TBS, 0.1% Tween-20) containing 5% BSA (Sigma A8022) and 0.04% sodium azide: HaloTag (1:1000, Promega; G9211), NanoLuc (1:500, Promega; N7000), β-actin (1:20,000, Sigma; A-1798), MLKL (1:1000, produced in-house; 3H1 clone)[39], FKBP (1:1000, R&D systems; 422513), caspase-8 (1:1000, Proteintech; 13423-1-AP), Histone H3 (1:1000, Abcam; ab10799), Cadherin (1:1000, Cell Signalling Technologies; 4068 T). […]
NC4. […] Cell death was assessed by flow cytometric analysis of PI exclusion. […]

T2 sequence (Q9GV45 other isoform, or with tags, fused parts or gaps with the stated changes): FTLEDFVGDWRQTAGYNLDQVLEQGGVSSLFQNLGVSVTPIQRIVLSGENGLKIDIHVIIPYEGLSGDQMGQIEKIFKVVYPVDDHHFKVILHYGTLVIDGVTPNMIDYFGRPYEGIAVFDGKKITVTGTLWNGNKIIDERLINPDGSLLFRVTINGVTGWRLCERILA
T3 sequence (Q9GV45 other isoform, or with tags, fused parts or gaps with the stated changes): as above
T1 sequence (P62942 whole entry F37V): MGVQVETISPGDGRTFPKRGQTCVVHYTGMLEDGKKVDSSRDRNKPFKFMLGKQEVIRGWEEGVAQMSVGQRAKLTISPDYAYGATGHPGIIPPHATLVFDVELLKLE

Row | Structure (SMILES) | degradation of murine MLKL-FKBP^F36V (murine MLKL-FKBP^F36V) | Dmax at 0.5 µM (Fibrillarin-NanoLuc) | NanoLuc-SLC38A2 level by Western blot (NanoLuc-SLC38A2)
1 | CC[C@H](C(=O)N1CCCC[C@H]1C(=O)O[C@H](CCc1ccc(OC)c(OC)c1)c1ccccc1OCC(=O)NCCCCCCC(=O)N[C@H](C(=O)N1C[C@H](O)C[C@H]1C(=O)N[C@@H](C)c1ccc(-c2scnc2C)cc1)C(C)(C)C)c1cc(OC)c(OC)c(OC)c1 [FV1] | comparable degradation | – | –
2 | CCc1cccc(N(CC)C(=O)Cn2c(C(=O)NC3CCC(C(=O)NCCCCCCCC(=O)NCCCCNc4cccc5c4C(=O)N(C4CCC(=O)NC4=O)C5=O)CC3)cc3ccccc32)c1 (stereo not drawn) [NC4] | – | ~52.9% | reduction in Nanoluc-SLC38A2
